Measured values: patent US20240041042A1, “1-(PYRIDYL)-5-AZINYLPYRAZOLE DERIVATIVES, AND THEIR USE FOR CONTROL OF UNDESIRED PLANT GROWTH” (Bayer Aktiengesellschaft, priority 2020, published 2024)
Like-named read-outs stand apart in the source and are kept apart here.

Experiments:
Type in all cases: in vivo
[1] = tested on: Verconica persica (VERPE); experiment: Pre-emergence herbicidal action against VERPE; settings: dosage 320 g/ha
Method in brief: (§1)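 Read-out is visual percent damage relative to untreated pots, with 100% meaning dead plants and 0% meaning no difference, assessed roughly three weeks after treatment. Compounds were applied pre-emergence to the covering soil at up to 320 g/ha.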

[2] = tested on: Amaranthus retroflexus (AMARE); experiment: Post-emergence herbicidal action against AMARE; settings: 80 g/ha, visual rating about 3 weeks after treatment vs untreated controls (100% = plants have died, 0% = like control plants)
Method in brief: (§2)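 Post-emergence greenhouse spray, one-leaf stage, 600 l/ha water plus 0.5% additive; WP or EC formulations; application rates 320 g/ha or lower. Visual % damage vs untreated controls at ~3 weeks.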

[3] = tested on: Digitaria sanguinalis (DIGSA); experiment: Pre-emergence herbicidal action against DIGSA
Method in brief: as §1

Avena fatua (AVEFA) [4] = experiment: Pre-emergence herbicidal action against AVEFA; settings: visual scoring after about 3 weeks vs untreated controls
Method in brief: as §1

Avena fatua (AVEFA) [5] = experiment: Post-emergence herbicidal action against AVEFA; settings: 80 g/ha, visual rating about 3 weeks after treatment
Method in brief: as §2

Zea mays (ZEAMX) [6] = settings: pre-emergence, 80 g/ha, crop plant compatibility, in comparison to untreated controls
Method in brief: (§3)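 Scoring: visual, % of untreated control, about 3 weeks after a pre-emergence application to the soil surface. Application used WP or EC formulations diluted in water with 0.5% additive at 600 l/ha; dosage levels are marked by suffixes a, b and c.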

Lolium rigidum (LOLRI) [7] = experiment: Pre-emergence herbicidal action against LOLRI
Method in brief: as §1

[8] = tested on: Matricaria inodora (MATIN); experiment: Pre-emergence herbicidal action against MATIN; settings: dosage 320 g/ha
Method in brief: as §1

Zea mays (ZEAMX) [9] = settings: for Post-emergence action against ZEAMX in % (crop plant compatibility): 20 g/ha, effect in comparison to untreated controls
Method in brief: (§4)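 Percent effect on the crop was judged by eye against untreated controls, where 0% means like control and 100% means dead plants. Plants had been sprayed post-emergence at the one-leaf stage and then kept under optimum greenhouse conditions for about 3 weeks.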

Oryza sativa (ORYSA) [10] = settings: crop plant compatibility
Method in brief: as §4

Viola tricolor (VIOTR) [11] = experiment: Post-emergence herbicidal action against VIOTR; settings: 80 g/ha
Method in brief: as §2

[12] = tested on: Alopecurus myosuroides (ALOMY); experiment: Post-emergence herbicidal action against ALOMY; settings: 80 g/ha, visual rating about 3 weeks after treatment vs untreated controls (100% = plants have died, 0% = like control plants)
Method in brief: as §2

Viola tricolor (VIOTR) [13] = experiment: Pre-emergence herbicidal action against VIOTR
Method in brief: as §1

[14] = tested on: Echinochloa crus-galli (ECHCG); experiment: Pre-emergence herbicidal action against ECHCG; settings: dosage 320 g/ha
Method in brief: as §1

[15] = tested on: Pharbitis purpurea (PHBPU); experiment: Pre-emergence herbicidal action against PHBPU; settings: dosage 320 g/ha
Method in brief: as §1

Lolium rigidum (LOLRI) [16] = experiment: Post-emergence herbicidal action against LOLRI; settings: dosage 80 g/ha
Method in brief: as §2

[17] = tested on: Polygonum convolvulus (POLCO); experiment: Post-emergence herbicidal action against POLCO; settings: dosage 80 g/ha
Method in brief: as §2

[18] = tested on: Digitaria sanguinalis (DIGSA); experiment: Post-emergence herbicidal action against DIGSA; settings: 80 g/ha, visual rating about 3 weeks after treatment
Method in brief: as §2

[19] = tested on: Abutilon theophrasti (ABUTH); experiment: Post-emergence herbicidal action against ABUTH; settings: 80 g/ha, visual rating about 3 weeks after treatment vs untreated controls (100% = plants have died, 0% = like control plants)
Method in brief: as §2

[20] = tested on: Polygonum convolvulus (POLCO); experiment: Pre-emergence herbicidal action against POLCO
Method in brief: as §1

Setaria viridis (SETVI) [21] = experiment: Post-emergence herbicidal action against SETVI; settings: dosage 80 g/ha
Method in brief: as §2

Setaria viridis (SETVI) [22] = experiment: Pre-emergence herbicidal action against SETVI
Method in brief: as §1

[23] = tested on: Pharbitis purpurea (PHBPU); experiment: Post-emergence herbicidal action against PHBPU; settings: dosage 80 g/ha
Method in brief: as §2

[24] = tested on: Amaranthus retroflexus (AMARE); experiment: Pre-emergence herbicidal action against AMARE; settings: visual scoring after about 3 weeks vs untreated controls
Method in brief: as §1

[25] = tested on: Alopecurus myosuroides (ALOMY); experiment: Pre-emergence herbicidal action against ALOMY; settings: scored visually after about 3 weeks, 100% = plants have died
Method in brief: as §1

[26] = tested on: Echinochloa crus-galli (ECHCG); experiment: Post-emergence herbicidal action against ECHCG; settings: dosage 80 g/ha
Method in brief: as §2

[27] = tested on: Matricaria inodora (MATIN); experiment: Post-emergence herbicidal action against MATIN; settings: dosage 80 g/ha
Method in brief: as §2

Oryza sativa (ORYSA) [28] = settings: pre-emergence, 80 g/ha, crop plant compatibility, in comparison to untreated controls
Method in brief: as §3

[29] = 80 g/ha, visual scoring after about 3 weeks vs untreated controls
[30] = 20 g/ha, effect vs untreated controls
[31] = 80 g/ha, effect in comparison to untreated controls

Row | Pre-emergence action against ZEAMX in % (Zea mays (ZEAMX) [6]) | Post-emergence action against ZEAMX in % (crop plant compatibility) (Zea mays (ZEAMX) [9]) | Post-emergence action against ORYSA in % (Oryza sativa (ORYSA) [10]; [30]) | Post-emergence action against ORYSA in % (Oryza sativa (ORYSA) [10]; [31]) | Compound | Pre-emergence action against VERPE in % [1] | Post-emergence action against AMARE in % [2] | Pre-emergence action against DIGSA in % [3, 29] | Pre-emergence action against DIGSA in % ([3]; dosage 320 g/ha) | Pre-emergence action against AVEFA in % (Avena fatua (AVEFA) [4]; 320 g/ha) | Post-emergence action against AVEFA in % (Avena fatua (AVEFA) [5]) | Pre-emergence action against LOLRI in % (Lolium rigidum (LOLRI) [7]; dosage 320 g/ha) | Pre-emergence action against MATIN in % [8] | Post-emergence action against ALOMY in % [12] | Pre-emergence action against VIOTR in % (Viola tricolor (VIOTR) [13]; 320 g/ha, Viola tricolor) | Pre-emergence action against ECHCG in % [14] | Pre-emergence action against POLCO in % ([20]; dosage 320 g/ha) | Pre-emergence action against SETVI in % (Setaria viridis (SETVI) [22]; dosage 320 g/ha) | Pre-emergence action against AMARE in % ([24]; 320 g/ha) | Pre-emergence action against ALOMY ([25]; 80 g/ha) | Pre-emergence action against ALOMY ([25]; 320 g/ha) | further results
1 | 0% | 0% | 0% | 0% | COC(=O)[C@@H](C)Oc1nn(-c2ccccn2)c(-c2ccnc(F)c2)c1Cl [Example I-19] | 100% | 80% | 100% | 100% | 100% | 90% | 100% | 90% | 100% | 100% | 100% | 100% | 100% | 100% | 100% | 100% | Pre-emergence action against AVEFA in % (Avena fatua (AVEFA) [4]; 80 g/ha): 80%; Post-emergence action against VIOTR in % (Viola tricolor (VIOTR) [11]): 90%; Pre-emergence action against VIOTR in % (Viola tricolor (VIOTR) [13]; dosage 80 g/ha): 100%; Pre-emergence action against PHBPU in % [15]: 90%; Post-emergence action against LOLRI in % (Lolium rigidum (LOLRI) [16]): 80%; Post-emergence action against POLCO in % [17]: 90%; Post-emergence action against DIGSA in % [18]: 80%; Post-emergence action against ABUTH in % [19]: 80%; Pre-emergence action against POLCO in % ([20]; dosage 80 g/ha): 90%; Post-emergence action against SETVI in % (Setaria viridis (SETVI) [21]): 80%; Pre-emergence action against SETVI in % (Setaria viridis (SETVI) [22]; dosage 80 g/ha): 100%; Post-emergence action against PHBPU in % [23]: 90%; Pre-emergence action against AMARE in % ([24]; 80 g/ha): 100%
2 | 10% | 20% |  |  | N#CCOC(=O)COc1nn(-c2ncccc2F)c(-c2ccc(F)nc2)c1Br [Example I-30] | 90% |  | 100% | 100% | 100% |  | 100% | 90% | 90% | 100% | 100% | 90% | 100% | 100% | 100% | 100% | Post-emergence action against ECHCG in % [26]: 80%; Pre-emergence action against LOLRI in % (Lolium rigidum (LOLRI) [7]; dosage 80 g/ha): 90%; Post-emergence action against ZEAMX in % (Zea mays (ZEAMX) [9]; crop plant compatibility, 80 g/ha, effect vs untreated controls): 20%; Post-emergence action against VIOTR in % (Viola tricolor (VIOTR) [11]): 80%; Pre-emergence action against VIOTR in % (Viola tricolor (VIOTR) [13]; dosage 80 g/ha): 90%; Pre-emergence action against PHBPU in % [15]: 90%; Post-emergence action against DIGSA in % [18]: 90%; Pre-emergence action against POLCO in % ([20]; dosage 80 g/ha): 80%; Post-emergence action against MATIN in % [27]: 90%; Pre-emergence action against SETVI in % (Setaria viridis (SETVI) [22]; dosage 80 g/ha): 90%; Pre-emergence action against AMARE in % ([24]; 80 g/ha): 100%
3 |  | 20% | 0% | 10% | CCOC(=O)C(C)Oc1nn(-c2ccccn2)c(-c2ccc(F)nc2)c1C(F)(F)F (centres unmarked) [Example I-107] |  | 80% |  |  | 80% | 90% | 100% | 90% | 90% | 100% | 100% | 80% | 100% | 100% | 90% | 90% | Pre-emergence action against ORYSA in % (Oryza sativa (ORYSA) [28]): 10%; Pre-emergence action against LOLRI in % (Lolium rigidum (LOLRI) [7]; dosage 80 g/ha): 80%; Post-emergence action against LOLRI in % (Lolium rigidum (LOLRI) [16]): 80%; Post-emergence action against SETVI in % (Setaria viridis (SETVI) [21]): 80%
